{"source": "patent US20160113981A1", "about": "“TOPICAL COMPOSITION” (priority 2014, published 2016)", "origin": "cited, not measured here", "key": {"[1]": {"conditions": "after topical application of lavender oil"}, "[2]": {"conditions": "equimolar dose of indomethacin"}}}
{"smiles": "C=CC(C)(CCC=C(C)C)OC(C)=O", "note": "(stereo not drawn) [linalyl acetate]", "values": [{"measurement": "time of peak in the blood", "setting": "[1]", "result": 19, "unit": "min"}]}
{"smiles": "C=CC(C)(O)CCC=C(C)C", "note": "(stereo not drawn) [linalool]", "values": [{"measurement": "time of peak in the blood", "setting": "[1]", "result": 19, "unit": "min"}]}
{"smiles": "CC1=CC[C@@]2(C)[C@H]([C@@H]1C)[C@H]1CC[C@@H]3[C@@]4(C)CC[C@H](O)C(C)(C)[C@@H]4CC[C@@]3(C)[C@]1(C)C[C@@H]2O", "note": "[faradiol]", "values": [{"measurement": "anti-inflammatory effect compared with indomethacin", "setting": "[2]", "result": "same effects as an equimolar dose of indomethacin"}]}
